Source: patent US7947253B2, “Perturbed membrane-binding compounds and methods of using the same” (Aposense Ltd., priority 2004, dated 2011)

Tests used:
[1] = test system: HeLa S3 cells undergoing apoptosis; experiment: Fluorescent microscopy of binding to cultured HeLa cells undergoing apoptosis; type: cell-based; settings: aged HeLa culture, fluorescence, FIG. 3
Method: HeLa S3 cells (ATCC CCL-2.2) were grown in Dulbecco's modified Eagle's medium (DMEM), supplemented with 2 mM of L-glutamine; 100 units/ml of penicillin; 100 μg/ml of streptomycin; 12.5 units/ml of nystatin and 10% of fetal calf serum (FCS). Cells were seeded at a density of 5×10^6 cells/plate, on a […] culture plates, in a volume of 10 ml, and were allowed to age by incubating the culture for 96 hours without exchange of the growth-medium. As a result, a marked percentage of the cells became apoptotic. Cells were harvested using a cell scraper, separated to single cells by passage through a syringe with a 18 G needle, and re-suspended at a density of 10^6 cells/ml in PBS buffer at pH=7.4. As was shown before NST 203 including a dansylamide group which enables the visualization of the fluorescence of a single cell.

[2] = test system: Jurkat cells undergoing apoptosis induced by CD95; experiment: Binding of tritium-labeled compounds to cultured Jurkat cells undergoing apoptosis induced by CD95; type: cell-based, human
Method: Cultured Jurkat cells (human adult T cell leukemia cells) were grown in suspension in RPMI medium (Beit-Haemek, Israel), supplemented with 10% fetal calf serum (FCS), 2 mM of L-glutamide, 1 mM of sodium pyruvate, 1 mM HEPES and antibiotics (100 units/ml penicilin; 100 μg/ml streptomycin and 12.5 units/ml of nystatin). Prior to induction of apoptosis, medium was replaced with HBS buffer (10 mM HEPES; 140 mM NaCl, 1 mM CaCl). Apoptosis was then triggered by treatment with CD95 (0.1 ug/10^7 cells/ml). As a result, a marked percentage of the cells became apoptotic. Non-treated cells served as control. Both control cells and apoptotic cells were then incubated for 40 minutes at room temperature followed by 30 minutes on ice with (2 μCi/10^7 cells/0.5 ml) tritium-labeled NST 200 and NST 205.
After washing the cells twice, 1 ml of SOLVABLE™ reagent (GNE9100, Packard Biosciences) was added to the pellet. Following one hour of incubation at 60° C., the extracts were transferred into glass scintillation vials and 10 ml of scintillation liquid (Ultima gold 6013329, Packard Biosciences) was added to each vial. The radioactivity was counted after 1 hour of cooling to room temperature and dark adaptation. The radioactive values were calculated and presented in percents of total added radiolabeled NST 200 and NST 205

colon carcinoma tumors [3] = experiment: Uptake into treated colon carcinoma tumors compared with tumor volume; type: in vivo, Balb/c male mice
Method: Colon carcinoma model was established in the abdomen of Balb/c male mice, as described in Example No. 10. At day 12-14 when tumor size was 6-8 mm in diameter, mice were injected intravenously with doxorubicin. A total of 2 doses of doxorubicin were given, separated by 3 days interval (each dose was 20 mg/Kg).
Two days after the second doxorubicin injection, mice were injected i.v. with 10 μCi of ^3H-NST200 in a volume of 0.2 ml saline. Four hours following ^3H-NST200 injection, mice were sacrificed by pental overdosing. Tumors were collected in ependorff tubes, weighted and frozen in −20° C.
Tumor lysis was performed using SOLVABLE™ reagent (GNE9100, Packard Bioscience) in a ratio of 1 ml reagent per 150 mg of tumor tissue at 60° C. in 20 ml scintillation glass vials. Following 2-4 hours, 1 ml from each tissue extract was transferred to a glass scintillation vial. To reduce color quenching problems, samples were treated with 0.4 ml of 30% H2O2 in the presence of 0.066M EDTA. […] The vials were incubated for 1 hr at RT, and than analyzed in a β-counter (TRI-CARB 2100TR, liquid scintillation analyzer, Packard Bioscience). Values of percents of injected dose (% ID/g tissue) were calculated for each sample. […] The uptake values of NST200 after each dose were correlated with tumor volume, which were calculated by the formula (assuming spherical tumors) V=πD^3/6, where D is the average tumor diameter.

[4] = test system: colon carcinoma tumor vs other organs; experiment: Biodistribution in colon carcinoma tumor bearing mice; type: in vivo, Balb/c male mice; settings: doxorubicin treated mice, 4 h after injection, table of FIG. 7
Method: Colon carcinoma model was established in the abdomen of Balb/c male mice, as described in previous example, and ^3H-NST200 (10 μCi) was injected to animals treated with doxorubicin. Four hours later, the animals were sacrificed and various organs/tissues were collected and processed, to determine the accumulation of ^3H-NST200 within them. The uptake in each organ was expressed as % of the injected dose (ID), and the ratio between the uptake in the tumor and other organs was calculated, as shown in the table attached hereto as FIG. 7.

[5] = test system: Murine colon carcinoma cells (CT-26) tumors; experiment: Uptake into colon carcinoma tumors: effect of chemotherapy (scintillation counting); type: in vivo, Balb/C mice
Method: Murine colon carcinoma cells (CT-26) (ATCC CRL-2638) were maintained in RPMI (Gibco, UK), 2 mM of L-glutamine; 100 units/ml of penicillin; 100 μg/ml of streptomycine; 12.5 units/ml nystatin; and 10% heated inactivation FCS. Studies were carried out in adult male Balb/C mice 8-10 weeks old (weighting 20-25gr).
Cells were trypsinized, washed twice with HBS (140 mM NaCl; […], PH 7.4) and than centrifuged (5 min, 1000 rpm, 4° C.) and concentrated into 2×10^6 cells/ml in a mixture of (2%) methyl cellulose and saline (1:3). A volume of 0.2 ml of the above solution (containing 4×10^5 cells/dose) was injected subcutaneously into the mice abdomen in both sides while mice were anaesthetized. Anaesthetic stock solution was prepared from 0.85 ml Ketamine (100 mg/ml)+0.15 ml Xilazine (2%) diluted 1:10. 0.1 ml of diluted solution was injected (i.p.) per 10 gr body weight.
Mice were examined daily for palpable tumor formation. 7-10 days after tumor injection small tumors were visible.
Uptake of ^3H-NST200 into tumors was measured following treatment of colon carcinoma tumors with i.v. injection of two doses of doxorubicin (20 mg/kg, 72 hours apart). 48 hours after the second dose, the mice were intravenously injected with ^3H-NST200 (10 μCi/animal). Four hours later, tumors were collected, weighed and the tissue was processed: tumor lysis was performed using SOLVABLE™ reagent (GNE9100, Packard Bioscience) in a ratio of one ml reagent per 150 mg of tumor tissue at 60° C. in 20 ml scintillation glass vials. Following 2-4 hours, one ml from each tissue extract was transferred to a glass scintillation vial. To reduce color quenching problems, samples were treated with 0.4 ml of 30% H2O2 in the presence of 0.066M EDTA. […] The vials were incubated for 1 hr at RT, and than analyzed in a β-counter (TRI-CARB 2100TR, liquid scintillation analyzer, Packard Bioscience). All samples were measured in triplicates Values of percents of injected dose (% ID/g tissue) were calculated for each sample.

[6] = test system: brain regions of apoptotic/necrotic cell death; experiment: Autoradiography of apoptotic damage following middle cerebral artery occlusion in mice; type: in vivo, Balb/C mice
Method: p-MCA was induced through a subtemporal approach in Balb/C mice with an outcome of a pronounced ischemic damage. Twenty-two hours after p-MCA, the animal's neurological score was assessed (from 0-no clinical signs to 3-hemiplegia, circling and catatonia) and radio-labeled NST200 (80 μCi/animal) was intravenously injected for successive 2 h before sacrificing the animals. 10 μm frozen sections were prepared, air-dried and exposed to a tritium sensitive film (Hyperfilm-3h, RPN535B Amersharn-Pharmacia, Eu). The film was exposed for a duration of 7 weeks, developed (GBX Developer & Fixer, Kodak, USA) and analyzed by densitometry measurement. Measurement of ^3H-DDC densities in optical density/mm^2, in the ischemic core vs. the contralateral hemisphere signal was assessed by TINA software. Signals were translated according to a Microscale autoradiography standards (RPN510 Amersham-Pharmacia, Eu) and expressed in nCi/mg units.

colon carcinoma tumors [7] = experiment: Autoradiography of response to chemotherapy in a mouse model of colon carcinoma; type: in vivo, Balb/c male mice; settings: 4 h after i.v. injection
Method: Colon carcinoma model was established in the abdomen of Balb/c male mice. At day 12-14 when tumor size was […] in diameter, the uptake of NST200 into tumors was measured following treatment of colon carcinoma tumors with i.v. injection of two doses of doxorubicin (20 mg/kg, 72 hours apart). Fourty-eight hours after the chemotherapy, both the control non-treated and the chemotherapy-treated animals were injected intravenously with and radio-labeled NST200 (80 μCi/animal) Four hours later, the animals were sacrificed. 10 μm frozen sections were prepared, air-dried and exposed to a tritium sensitive film. The film was exposed for a duration of 7 weeks, developed and analyzed by densitometny measurement. Measurement of ^3H-DDC densities in optical density/mm^2, […] was assessed by TINA software. Signals were translated according to a Microscale autoradiography standards and expressed in nCi/mg units.

[8] = test system: brain and spinal cord white matter in EAE; experiment: Autoradiography imaging of experimental autoimmune encephalomyelitis (EAE); type: in vivo, C3H.SW/C57/bl female mice; settings: FIG. 12
[9] = test system: injured regions within the outer medulla of the kidney; experiment: Autoradiography in a rat model of radiocontrast-induced acute distal tubular necrosis; type: in vivo, rats; settings: 24 h after insult, 1 h after i.v. injection, FIG. 11
Method: Nephropathy with selective medullary hypoxic tubular damage was induced by the combined administration of indomethacin (Sigma Chemical Co.), 10 mg/kg, i.v., N^ωnitro-L-arginine methyl ester (L-NAME, Sigma Chemical Co.), 10 mg/kg, i.v., and radiocontrast agent sodium-iothalamate 80% (Angio-Conray, Mallinckrodt Inc), 6 mL/kg, i.a. Additional rats injected with vehicles served as control. Twenty-four hours after insult, animals, both control and experimental were intravenously injected with 100 μCi of ^3H-NST205 and one hour later kidneys were excised and frozen in liquid nitrogen.

[10] = test system: kidney regions of apoptotic/necrotic cell death; experiment: Autoradiography of rat renal ischemia-reperfusion; type: in vivo, rats

SMILES: CCCCNS(=O)(=O)c1cccc2c(N(C)C)cccc12 [BDA, n-butyl-dansylamide]
- selectivity of binding to apoptotic vs non-apoptotic cells [1]: did not manifest this selectivity

SMILES: CCCCC(C)(C(=O)O)C(=O)O [NST200]
- uptake in apoptotic cells compared to the non-apoptotic cells ([2]; tritium-labeled compound, CD95-induced apoptosis, FIG. 2A): over 8 fold
- increase in uptake in tumors after 2 doses of doxorubicin (colon carcinoma tumors [3]; two days after second dose, 4 h after i.v. injection, vs control non-treated tumors): 18.5 fold
- ratio of uptake in the tumor vs. all organs [4]: > 1
- mean value of uptake in the treated group ([5]; doxorubicin treated tumors, 48 hr after second dose, 4 h after i.v. injection): 1.28 % ID/gr
- mean uptake of treated group relative to mean value of the control group ([5]; doxorubicin treated vs non treated tumors): 12.1 fold
- increase in uptake in some treated tumors as compared with the control group ([5]; some chemotherapy-treated tumors): 40-50 fold
- targeting of injury within regions of apoptotic/necrotic cell death (autoradiography) ([6]; 22 h after p-MCA, i.v., 2 h, FIG. 9): specificity of targeting the injury
- uptake in damaged brain hemisphere compared to the contralateral non-damaged hemisphere ([6]; tritium-labeled compound): markedly higher levels of uptake
- uptake in tumors upon induction of cell death via chemotherapy (autoradiography) (colon carcinoma tumors [7]; 48 h after two doses of doxorubicin, FIGS. 5B and C): dramatic increase
- uptake in non-treated tumors (autoradiography) (colon carcinoma tumors [7]; control non-treated mice, FIG. 5A): no uptake
- radio-ligand accumulation in brain vs control non-immunized mouse ([8]; coronal brain sections, 1 h after i.v. injection): excess of radio-ligand accumulation in the whole brain
- accumulation at the spinal cord level vs control untreated animal ([8]; longitudinal spinal cord section): impressive accumulation

SMILES: CCCCC(CCCF)(C(=O)O)C(=O)O [NST205, 2-butyl-2(3-fluoropropyl)-malonic acid]
- homing in kidney (autoradiography) [9]: primarily restricted to injured regions within the outer medulla
- effect of adding caspase inhibitor ZVAD on the higher uptake in apoptotic cells ([2]; CD95, plus ZVAD, FIG. 2B): completely reversed
- uptake in apoptotic cells in comparison to the non apoptotic cells ([2]; tritium-labeled compound, CD95-induced apoptosis, FIG. 2B): higher uptake
- targeting of injury within regions of apoptotic/necrotic cell death in ischemic kidney (autoradiography) ([10]; 45 minutes ischemia, 24 hours reperfusion, 1 h after i.v. injection, FIG. 10): specificity of targeting the injury
- uptake into contralateral kidney ([10]; contralateral untreated kidney of same animal): no ^3H-NST205 uptake into contralateral kidney

SMILES: COc1cccc2c1C(=O)c1c(O)c3c(c(O)c1C2=O)C[C@@](O)(C(=O)CO)C[C@@H]3O[C@H]1C[C@H](N)[C@H](O)[C@H](C)O1 [doxorubicin, reference compound]
- increase in tumor volume as compared to control non-treated tumors (colon carcinoma tumors [3]; 2 doses of 20 mg/Kg i.v., 5 days, controls collected 5 days earlier, non-significant): 50%
